Assay results reported in PMC5785467 (Nature, 2018).

Target: T1, beetle ICMT (Tribolium castaneum, UniProt D6WJ77)
T1 sequence (D6WJ77 1-281): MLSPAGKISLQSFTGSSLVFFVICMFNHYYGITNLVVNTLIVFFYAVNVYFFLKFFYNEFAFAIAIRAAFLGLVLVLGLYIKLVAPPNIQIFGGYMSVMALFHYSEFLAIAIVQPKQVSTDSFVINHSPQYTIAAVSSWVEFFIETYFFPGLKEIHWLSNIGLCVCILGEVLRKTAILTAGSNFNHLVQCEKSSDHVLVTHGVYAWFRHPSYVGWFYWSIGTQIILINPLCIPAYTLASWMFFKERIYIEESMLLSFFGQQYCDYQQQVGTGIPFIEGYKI
Assay: X-ray crystal structure, […] Å
Format: binding
Conditions: complex with monobody MB-15, lipidic cubic phase; cofactor site

Nc1ncnc2c1ncn2[C@@H]1O[C@H](CSCC[C@H](N)C(=O)O)[C@@H](O)[C@H]1O [AdoHcy]
X-ray crystal structure, 2.3 Å: AdoHcy is encapsulated within a pocket that is formed by the M6–M7 connector
